Test results as given in paper PMC7737769, “Pharmacological inhibition of syntenin PDZ2 domain impairs breast cancer cell activities and exosome loading with syndecan and EpCAM cargo” (Journal of Extracellular Vesicles, 2020).
“And” between values parts separate entries of the source, which are not always exact repeats. Equal values may be shown once. Read-outs that look alike come from different tables or passages of the source.

Key:
MCF‐7 cells = test: Mammosphere formation assay, MCF-7; type: cell-based; conditions: wild-type MCF-7, 50 & 100 µM
Protocol: MCF‐7 and MCF‐7 SyntKO cells were treated with increasing concentrations of compounds C58, SyntOFF (50‐100µM) or DMSO 0.2% as control. After 24 h, cells were trypsinized, re‐suspended in normal growth media and washed three times in PBS to remove serum. Cell concentration was determined using the LUNA-FL Automated Fluorescence Cell Counter (Logos Biosystem) and cells were then seeded at 1000 cells/ml in 6‐well Ultra low Adherence plates (Corning Inc., Corning, NY) in MEBM medium (Lonza) supplemented with 5 µg/ml insulin (Sigma‐Aldrich), 20 ng/ml recombinant epidermal growth factor (Sigma‐Aldrich), 1X of B27 supplement (Invitrogen, Carlsbad, CA, USA), 0.5 µg/ml hydrocortisone (Sigma‐Aldrich), 1X of β‐mercaptoethanol and 1% penicillin/streptomycin (Gibco). Fresh medium was added into the plates every 3–4 days. The number of spheres (diameter > 50 µm) was evaluated under microscope on days 7–10. Sphere formation was calculated as the number of spheres divided by the original number of cells seeded and normalized to control.

[1] = target: T1, syntenin‐SDC2 complex (GST-SyntFL / SDC2 peptide) (Homo sapiens, UniProt O00560); test: HTRF assay, syntenin-SDC2 interaction; type: biochemical; conditions: for IC50: HTRF dose-response, read-out: IC50 for syntenin‐SDC2 complexes; for inhibition at 400 µM: HTRF
T1 construct: residues 1–298 or syntenin full‐length (FL) for HTRF assays; made in house; host or cells: E. coli ER2566
T1 sequence (O00560 1-298): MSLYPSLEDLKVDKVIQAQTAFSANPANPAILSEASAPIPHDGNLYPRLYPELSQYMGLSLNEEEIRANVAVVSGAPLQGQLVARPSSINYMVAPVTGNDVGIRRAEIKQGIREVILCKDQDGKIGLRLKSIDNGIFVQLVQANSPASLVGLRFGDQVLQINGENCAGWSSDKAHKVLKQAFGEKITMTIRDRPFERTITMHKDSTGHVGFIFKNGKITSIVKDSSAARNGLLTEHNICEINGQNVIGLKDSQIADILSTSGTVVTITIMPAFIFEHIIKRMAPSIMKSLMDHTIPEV

GRASP55‐JAM‐B complex = system: T2, GRASP55‐JAM‐B complex; test: HTRF assay, GRASP55-JAM-B interaction; type: biochemical, human
T2 construct: Human GRASP55 tandem PDZ; made in house; host or cells: E. coli BL21 (DE3)
Protocol: HTRF assays were performed in white 96Well Small VolumeHiBase Polystyrene Microplates (Greiner) with a total working volume of […], as described previously (Milhas et al., 2016). Briefly, compounds were firstly dispensed into the wells at 400 µM for the primary screen or with serial DMSO dilutions for IC50 measurement assays. Primary screening assays have been performed in monoplicate while IC50 measurements were performed in triplicates. All HTRF reagents were purchased from CisBio Bioassays and reconstituted according to the supplier protocols. The plates were spun for 3 min at 500 × g and then incubated at 4°C for 16 h. The HTRF signals were recorded on a POLAR star Omega plate reader (BMG Labtech) with an excitation filter at 337 nm and fluorescence wavelength measurement at 620 and 665 nm, an integration delay of 60 µs and an integration time of 400 µs. Results were analysed with a two‐wavelength signal ratio: [intensity (665 nm)/intensity (620 nm)] × 10^4. Percentage of inhibition was calculated using the following equation: % inhibition = [(compound signal)–(min signal)]/[(max signal)–(min signal)] × 100, where ‘max signal’ is the signal ratio with the compound vehicle alone (DMSO) and ‘min signal’ the signal ratio without protein B. For IC50 measurements, values were normalized and fitted with Prism (GraphPad software) using the following equation: Y = 100/(1+((X/ IC50)ˆHill slope)).
The search strategy for PDZ2 syntenin inhibitors was based on the PDZ targeted library developed from Enamine compound collection. The PDZ targeted library was developed to cover virtually all PDZ domains. Consequently, to create the syntenin PDZ2 focused library we used two independent paths: docking of the PDZ targeted library against structures of syntenin PDZ2 available in Protein Data Bank and a random selection from the PDZ targeted library. The docking has produced 21 virtual hits, which were added to 118 randomly selected compounds (10% of the pan PDZ library). The resultant set of 139 compounds, syntenin PDZ library was subjected to experimental validation. The primary screen was performed at 400µM using a previously validated Homogeneous Time Resolved Fluorescence (HTRF) assay (Milhas et al., 2016). HTRF is based on Fluorescence Resonance Energy Transfer (FRET) between two fluorescent reagents. In the present case, Anti‐GST‐Terbium antibody and streptavidin‐bound Dynamic2 were used as donor and acceptor respectively. Interactions between GST PDZ‐fusion proteins and biotinylated peptides containing PDZ binding motifs were challenged with the potential inhibitors. In parallel, control experiments were performed with a biotinylated‐GST to verify that compounds were not interfering with the FRET signal in a non‐specific manner. To identify inhibitors of syntenin PDZ interactions, we tested for the effect of the 139 compounds on syntenin‐SDC2 and syntenin‐Frizzled7 complexes (Figure 1a; Table S1). When the HTRF signal dropped below 0.9, inhibition was considered as effective. […] Noteworthy, these compounds had no effect on other PDZ complexes like GRASP55‐JAM‐B or GRASP55‐JAM‐C and Erbin‐Erbb2 or Erbin‐P0071 (Figure 1c).

Row | SMILES | mammosphere formation (MCF‐7 cells) | ligand efficiency [1] [kcal/mol/atom] | GST SyntFL Syndecan 2 (signal ratio) ([1]; 400µM compound, Figure 1c) | IC50 [1] | inhibition of syntenin PDZ interactions ([1]; HTRF primary screen, 400µM, syntenin-SDC2 and syntenin-Frizzled7) | inhibition at 400 µM ([1]; syntenin-SDC2 and syntenin-Frizzled 7 complexes, read-out: extent of inhibition of Syntenin‐PDZ complexes) [%] | GST-GRASP JAM-B (signal ratio) (GRASP55‐JAM‐B complex; 400µM compound, Figure 1c) | fold improvement of the affinity as compared to C58 ([1]; HTRF IC50) | inhibition at 400 µM ([1]; read-out: inhibition of the syntenin‐SDC2 interaction) [%] | effect on GRASP55‐JAM‐B complex (GRASP55‐JAM‐B complex; HTRF dose-response, Figure S2b)
1 | CC(C)[C@H](NC(=O)CSc1ccc(Cl)cc1)C(=O)O [Compound C58] | decreases | 0.24 | 0.36 | 350 µM and 349 µM | inhibit | 60 | 1.1 | – | – | –
2 | CC(C)[C@H](NC(=O)CCSc1ccc(Cl)cc1)C(=O)O [SyntOFF, (S)‐2‐(3‐(4‐chlorophenylthio)propanamido)‐3‐methylbutanoic acid] | decreases | 0.30 | – | 37 µM | – | – | – | > 10 fold and 10 fold | 96 | not affecting
